Activity and Ki data for four compounds are collected here from ChEMBL document CHEMBL1134226, “The amide hydrogen of (-)-indolactam-V and benzolactam-V8's plays a critical role in protein kinase C binding and tumor-promoting activities” (Bioorg Med Chem Lett, 2001).

pKi: −log10 of the molar value.

As a reminder, the pKi is the Ki on a negative log10 scale, so that one unit is a factor of ten. A lower pKi goes with a high Ki.

Experiment [1] deals with HL-60. The experiment can be described thus: Tested for superoxide (O2-) generation inducing activity in differentiated HL-60 cells at 10e-7 M. The class given is functional, Homo sapiens.
Experiment [2] concerns HL-60. The experiment can be described thus: Tested for superoxide (O2-) generation inducing activity in differentiated HL-60 cells at 10e-4 M. The experiment is classed as functional, Homo sapiens.
Experiment [3] deals with HL-60. Put plainly: Tested for superoxide (O2-) generation inducing activity in differentiated HL-60 cells at 10e-5 M. The experiment is classed as functional, Homo sapiens.
The subject of experiment [4] is HL-60. The experiment can be described thus: Tested for superoxide (O2-) generation inducing activity in differentiated HL-60 cells at 10e-6 M. The experiment is classed as functional, Homo sapiens.
For experiment [5], the target named is T1, Protein kinase C alpha type (Homo sapiens, UniProt P17252). Put plainly: Inhibition of [3H]phorbol-12,13-dibutyrate (PDBu) binding to Protein kinase C alpha C1a domain.
Experiment [6] deals with T1, Protein kinase C alpha type. Put plainly: Inhibition of [3H]phorbol-12,13-dibutyrate (PDBu) binding to Protein kinase C alpha C1b domain.
Experiment [7] has as its target T2, Protein kinase C delta type (Homo sapiens, UniProt Q05655). Put plainly: Inhibition of [3H]phorbol-12,13-dibutyrate (PDBu) binding to Protein kinase C delta C1a domain.
Experiment [8] concerns the target T3, Protein kinase C beta type (Homo sapiens, UniProt P05771). The experiment can be described thus: Inhibition of [3H]phorbol-12,13-dibutyrate (PDBu) binding to Protein kinase C beta C1b domain.
Target sequence in this assay (P05771 whole entry, looked up, the tested form may be a part): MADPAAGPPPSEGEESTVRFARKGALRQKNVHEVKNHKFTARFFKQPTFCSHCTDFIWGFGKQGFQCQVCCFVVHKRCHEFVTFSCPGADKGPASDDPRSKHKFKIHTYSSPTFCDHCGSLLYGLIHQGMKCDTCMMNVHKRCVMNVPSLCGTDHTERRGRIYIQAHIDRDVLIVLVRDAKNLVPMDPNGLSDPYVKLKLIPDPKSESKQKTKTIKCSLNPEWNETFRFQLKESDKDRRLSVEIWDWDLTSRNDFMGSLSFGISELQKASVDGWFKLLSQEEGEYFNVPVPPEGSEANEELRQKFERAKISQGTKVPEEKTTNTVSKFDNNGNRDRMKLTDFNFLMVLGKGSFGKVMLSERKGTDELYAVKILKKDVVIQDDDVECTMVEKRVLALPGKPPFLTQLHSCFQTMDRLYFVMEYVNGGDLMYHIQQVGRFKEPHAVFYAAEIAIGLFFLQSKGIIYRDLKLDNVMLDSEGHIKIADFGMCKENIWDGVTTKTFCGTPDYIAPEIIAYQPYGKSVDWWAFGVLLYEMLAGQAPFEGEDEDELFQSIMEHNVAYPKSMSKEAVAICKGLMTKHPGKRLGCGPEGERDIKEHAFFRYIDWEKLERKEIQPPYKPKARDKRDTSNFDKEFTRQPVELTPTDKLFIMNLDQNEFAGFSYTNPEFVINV
For experiment [9], the target named is T3, Protein kinase C beta type. The experiment can be described thus: Inhibition of [3H]phorbol-12,13-dibutyrate (PDBu) binding to Protein kinase C beta C1a.
Target sequence in this assay (P05771 whole entry, the tested form may be a part): as the sequence (P05771 whole entry, looked up, the tested form may be a part) above
Experiment [10] concerns the target T2, Protein kinase C delta type. Put plainly: Inhibition of [3H]phorbol-12,13-dibutyrate (PDBu) binding to Protein kinase C delta C1b domain.
Experiment [11] has as its target Protein kinase C theta type (Homo sapiens, UniProt Q04759). Put plainly: Inhibition of [3H]phorbol-12,13-dibutyrate (PDBu) binding to Protein kinase C theta C1b domain.
Experiment [12] has as its target T4, Protein kinase C gamma type (Homo sapiens, UniProt P05129). The experiment can be described thus: Inhibition of [3H]phorbol-12,13-dibutyrate (PDBu) binding to Protein kinase C gamma C1a domain.
Experiment [13] deals with T4, Protein kinase C gamma type. The experiment can be described thus: Inhibition of [3H]phorbol-12,13-dibutyrate (PDBu) binding to Protein kinase C gamma C1b domain.
Experiment [14] concerns the target T5, Protein kinase C eta type (Homo sapiens, UniProt P24723). Put plainly: Inhibition of [3H]phorbol-12,13-dibutyrate (PDBu) binding to Protein kinase C eta C1b domain.
In experiment [15] the target is T6, Protein kinase C epsilon type (Homo sapiens, UniProt Q02156).
T6 sequence (Q02156 whole entry): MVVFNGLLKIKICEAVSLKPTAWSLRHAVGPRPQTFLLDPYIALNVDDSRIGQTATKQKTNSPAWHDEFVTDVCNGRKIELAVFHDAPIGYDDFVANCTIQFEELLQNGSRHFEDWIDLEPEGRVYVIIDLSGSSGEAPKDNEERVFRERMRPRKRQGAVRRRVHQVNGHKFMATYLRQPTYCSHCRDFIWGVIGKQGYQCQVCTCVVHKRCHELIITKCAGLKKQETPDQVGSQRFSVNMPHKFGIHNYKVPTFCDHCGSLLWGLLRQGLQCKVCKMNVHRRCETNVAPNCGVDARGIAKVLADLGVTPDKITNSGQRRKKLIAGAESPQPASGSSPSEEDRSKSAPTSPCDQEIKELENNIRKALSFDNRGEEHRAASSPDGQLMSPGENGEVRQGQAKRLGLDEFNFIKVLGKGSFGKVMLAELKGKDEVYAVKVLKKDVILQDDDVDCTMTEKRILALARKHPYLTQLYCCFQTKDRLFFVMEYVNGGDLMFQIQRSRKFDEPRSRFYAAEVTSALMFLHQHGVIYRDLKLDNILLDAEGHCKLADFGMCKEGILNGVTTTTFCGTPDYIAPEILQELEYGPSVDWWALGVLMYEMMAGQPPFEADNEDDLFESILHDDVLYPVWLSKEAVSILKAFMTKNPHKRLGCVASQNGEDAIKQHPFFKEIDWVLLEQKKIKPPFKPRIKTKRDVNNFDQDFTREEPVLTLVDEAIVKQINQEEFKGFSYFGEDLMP
The experiment can be described thus: Inhibition of [3H]phorbol-12,13-dibutyrate (PDBu) binding to Protein kinase C epsilon C1a domain.

Experiment [16] deals with T6, Protein kinase C epsilon type. Put plainly: Inhibition of [3H]phorbol-12,13-dibutyrate (PDBu) binding to Protein kinase C epsilon C1b domain.
For experiment [17], the target named is T5, Protein kinase C eta type. The experiment can be described thus: Inhibition of [3H]phorbol-12,13-dibutyrate (PDBu) binding to Protein kinase C eta C1a domain.
Experiment [18] concerns Raji (Homo sapiens). The experiment can be described thus: Tested for epstein barr virus early antigen (EBV-EA) inducing activity in Raji cells at 10e-6 M.
The test system of experiment [19] is Raji (Homo sapiens). Put plainly: Tested for epstein barr virus early antigen (EBV-EA) inducing activity in Raji cells at 10e-5 M.
Experiment [20] deals with Raji (Homo sapiens). Put plainly: Tested for epstein barr virus early antigen (EBV-EA) inducing activity in Raji cells at 10e-4.5 M.
In experiment [21] the test system is HL-60. Put plainly: Tested for epstein barr virus early antigen (EBV-EA) inducing activity in […] at 10e-7 M. The class given is functional, Homo sapiens.

T2 sequence (Q05655 whole entry, the tested form may be a part): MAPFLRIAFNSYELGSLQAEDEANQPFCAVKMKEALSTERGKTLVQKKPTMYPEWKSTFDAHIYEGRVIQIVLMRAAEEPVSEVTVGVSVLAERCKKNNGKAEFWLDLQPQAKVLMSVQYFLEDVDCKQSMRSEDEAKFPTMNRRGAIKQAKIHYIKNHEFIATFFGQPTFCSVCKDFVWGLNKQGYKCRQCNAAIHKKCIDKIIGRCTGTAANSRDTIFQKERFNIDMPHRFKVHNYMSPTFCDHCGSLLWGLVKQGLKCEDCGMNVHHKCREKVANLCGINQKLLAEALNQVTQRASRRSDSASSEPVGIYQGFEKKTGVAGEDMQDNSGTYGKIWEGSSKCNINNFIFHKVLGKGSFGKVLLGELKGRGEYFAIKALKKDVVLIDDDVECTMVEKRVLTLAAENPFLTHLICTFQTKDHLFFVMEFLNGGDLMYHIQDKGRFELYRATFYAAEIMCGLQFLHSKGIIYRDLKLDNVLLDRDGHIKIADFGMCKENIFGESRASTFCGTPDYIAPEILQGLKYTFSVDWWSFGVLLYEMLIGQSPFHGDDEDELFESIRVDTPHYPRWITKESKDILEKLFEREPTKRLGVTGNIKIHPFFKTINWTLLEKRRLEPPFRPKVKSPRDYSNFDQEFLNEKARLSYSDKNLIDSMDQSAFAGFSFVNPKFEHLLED
T5 sequence (P24723 whole entry, the tested form may be a part): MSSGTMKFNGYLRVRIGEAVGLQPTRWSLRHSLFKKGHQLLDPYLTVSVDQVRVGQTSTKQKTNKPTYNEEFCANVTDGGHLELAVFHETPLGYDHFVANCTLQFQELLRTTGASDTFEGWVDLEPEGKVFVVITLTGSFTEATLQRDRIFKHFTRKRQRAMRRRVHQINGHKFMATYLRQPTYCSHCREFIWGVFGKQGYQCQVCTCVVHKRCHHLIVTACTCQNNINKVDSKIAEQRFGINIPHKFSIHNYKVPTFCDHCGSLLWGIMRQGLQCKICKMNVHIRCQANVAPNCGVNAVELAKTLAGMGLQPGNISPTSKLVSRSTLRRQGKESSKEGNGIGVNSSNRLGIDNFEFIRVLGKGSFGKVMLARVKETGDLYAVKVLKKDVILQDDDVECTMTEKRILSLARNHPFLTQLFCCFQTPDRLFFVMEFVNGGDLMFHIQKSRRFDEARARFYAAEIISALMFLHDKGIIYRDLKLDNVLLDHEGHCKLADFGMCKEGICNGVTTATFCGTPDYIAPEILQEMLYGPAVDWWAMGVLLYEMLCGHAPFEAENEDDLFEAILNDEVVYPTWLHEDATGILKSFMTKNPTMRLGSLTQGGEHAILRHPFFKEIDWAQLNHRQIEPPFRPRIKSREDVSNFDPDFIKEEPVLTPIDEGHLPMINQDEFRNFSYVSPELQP
Protein kinase C theta type, sequence (Q04759 whole entry, the tested form may be a part): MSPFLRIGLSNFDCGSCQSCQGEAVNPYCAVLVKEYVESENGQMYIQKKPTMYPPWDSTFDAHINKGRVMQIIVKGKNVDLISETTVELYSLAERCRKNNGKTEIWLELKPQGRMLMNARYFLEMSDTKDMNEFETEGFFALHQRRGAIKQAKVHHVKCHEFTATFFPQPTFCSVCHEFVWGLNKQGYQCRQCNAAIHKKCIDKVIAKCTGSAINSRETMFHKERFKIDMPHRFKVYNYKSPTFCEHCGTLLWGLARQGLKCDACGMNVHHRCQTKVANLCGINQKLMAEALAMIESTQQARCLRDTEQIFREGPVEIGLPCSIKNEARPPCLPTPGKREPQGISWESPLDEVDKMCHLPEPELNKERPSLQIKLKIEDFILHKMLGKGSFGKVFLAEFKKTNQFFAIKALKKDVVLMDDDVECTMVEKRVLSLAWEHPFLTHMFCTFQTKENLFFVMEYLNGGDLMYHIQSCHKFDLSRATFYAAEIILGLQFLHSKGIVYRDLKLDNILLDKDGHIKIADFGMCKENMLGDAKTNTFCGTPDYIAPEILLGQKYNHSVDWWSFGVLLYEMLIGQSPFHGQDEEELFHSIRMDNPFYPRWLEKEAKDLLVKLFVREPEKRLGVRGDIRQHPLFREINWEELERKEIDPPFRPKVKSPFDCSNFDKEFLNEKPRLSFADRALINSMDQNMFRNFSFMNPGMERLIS

The compound `CCCCCCCCCCCCCC(=O)O[C@@H]1[C@@H](C)[C@@]2(O)[C@@H](C=C(CO)C[C@]3(O)C(=O)C(C)=C[C@@H]23)[C@@H]2C(C)(C)[C@]12OC(C)=O` [PHORBOL MYRISTATE ACETATE] had an Activity in the experiment with HL-60 [1] of 1.32 nM min-1 ml-1.

In the case of `CCCCCCCCCCc1ccc2c(c1)C[C@@H](CO)OC(=O)[C@H](C(C)C)N2C`, the Activity with HL-60 [2] amounted to 0.19 nM min-1 ml-1; in the experiment with HL-60 [3], 0.2 nM min-1 ml-1; with HL-60 [4], 0.11 nM min-1 ml-1; in the experiment on Raji (Homo sapiens) [18], 0.8%; with Raji (Homo sapiens) [19], 1.9%; in the experiment with Raji (Homo sapiens) [20], 5%. The pKi in experiment [5] is below 5.00; in experiment [6], below 5.00; in [7], 4.15; in [8] it was 4.66; in experiment [9], below 5.00; in experiment [10] it was 5.94. In addition, the pKi in [11] is 5.96; in [12], 5.20; in experiment [13], 4.76; in experiment [14], 6.92; in experiment [15] it was below 5.00; in experiment [16], 6.58. Further, the pKi in [17] was below 5.00.

Consider `CC(C)[C@H]1C(=O)N[C@H](CO)Cc2c[nH]c3cccc(c23)N1C` [INDOLACTUM], for which the Activity in the experiment with HL-60 [21] is 16.8%; with HL-60 [3] it was 3.18 nM min-1 ml-1; in the experiment with HL-60 [4], 3.19 nM min-1 ml-1; in the experiment with HL-60 [1], 0.05 nM min-1 ml-1; with Raji (Homo sapiens) [18] it was 33.5%; in the experiment on Raji (Homo sapiens) [19] it was 28.9%.

As to `CCCCCCCCCCc1ccc2c(c1)C[C@@H](CO)NC(=O)[C@H](C(C)C)N2C`, the Activity worked out at 3.04 nM min-1 ml-1 with HL-60 [3]; 0.31 nM min-1 ml-1 with HL-60 [4]; 0.33 nM min-1 ml-1 in the experiment on HL-60 [1]; 6.7% with Raji (Homo sapiens) [18]; 11.3% with Raji (Homo sapiens) [19]; 17.6% in the experiment with Raji (Homo sapiens) [20]. Further, the pKi was 6.49 in experiment [5]; 5.33 in experiment [6]; 5.56 in [7]; 6.58 in [8]; 6.35 in experiment [9]; 7.84 in experiment [10]. The negative-log Ki (pKi) was 7.88 in [11]; 5.78 in [12]; 6.82 in experiment [13]; 8.19 in experiment [14]; 5.08 in experiment [15]; 7.88 in experiment [16]. Further, the negative logarithm of the Ki (pKi) in [17] was 5.60.
